Assay results as given in patent US20150072391A1, “ETHANOL PRODUCTION IN ENGINEERED YEAST” (Massachusetts Institute of Technology, priority 2013, published 2015).
Where two headings read alike, the source gives them in different places.

Key:
yeast = test: Fermentation in synthetic media with cellulosic hydrolysate inhibitors; assay type: cell-based
Procedure: To determine whether elevated K^+ and pH can overcome the toxicity in acid hydrolysates of cellulosic biomass, fermentation experiments were performed using synthetic lab media supplemented with the known major inhibitors (e.g., acetic acid, furfural and hydroxymethylfurfural (HMF)).
All concentrations were then increased by a factor of four to 120 mM (FIG. 23B), far above what has been reported in any hydrolysate. […] Raising K^+ and pH then boosted production by another 54%.

Strain BY4743 = test: Intracellular pH by ratiometric pHluorin after ethanol shock; assay type: cell-based, Saccharomyces cerevisiae; conditions: for counteraction of the ethanol-mediated pH drop: supplementation of medium
Procedure: Strain BY4743 (WT) was transformed with p416TEF-pHluorin and grown overnight in 1×YSC-URA containing 200 g/L glucose and any indicated supplements. Equal amounts of yeast biomass were washed and transferred into respective fresh medium containing the indicated concentrations of ethanol, incubated at room temperature for 30 min, and measured for fluorescence emission. The ratio of intensities emitted from excitation at 395 nm and 475 nm ([…]) is directly proportional to pH.
To assess pHi, fluorescence intensities from strains carrying a centromeric plasmid expressing ratiometric pHluorin (LAMy178) or empty vector (LAMy96) were measured in a Tecan Safire^2™ microplate reader using excitation wavelengths of 395 nm and 475 nm, and common emission wavelength of 508 nm. Samples, all normalized for cell density, of 140 μL were aliquoted in duplicate to a 96-well black-walled, clear-bottom plate (Costar #3631), and the readings of the replicates averaged. Autofluorescence was removed by subtracting measurements of LAMy96 from LAMy178, both treated under identical conditions. The ratio of the intensities emitted by excitation at 395 nm to that by excitation at 475 nm is directly proportional to pHi; ratios in the 0.5-1.2 range roughly correspond to pH values of ˜5.5-7 (Orij, R., et al. Microbiology (Reading, Engl) 155, 268-278 (2009)).

H131-A3-AL^CS = test: High cell density xylose fermentation; assay type: cell-based, Saccharomyces cerevisiae; conditions: K—Pi supplementation, 100 g/L xylose
Procedure: Furthermore, altering the medium to augment membrane gradients enhanced ethanol production not only from glucose, but from xylose, an abundant carbon source from lignocellulosic feedstocks that cannot be metabolized by unmodified S. cerevisiae^23. Therefore K—Pi supplementation was tested on H131-A3-AL^CS, a strain incorporating the Piromyces XYLA isomerase and P. stipitis XYL3 xylulokinase, and optimized to consume xylose^24. In high cell density, high xylose-only (100 g/L) fermentations, increases of ˜70% in both ethanol titer and productivity were found (FIG. 5D). […]
To build yeast biomass and osmotically adapt cells for high cell density and high sugar fermentations, starter cultures consisting of the unmodified base medium (i.e., 1×YSC or YSC-URA) and ˜0.3× the target fermentation sugar concentration (e.g., 100 g/L glucose) were grown until saturation, pelleted by centrifugation, and the entire cell mass used to inoculate a second “pre-fermentation” culture containing ˜0.5-0.6× the target sugar concentration (e.g., 150 g/L glucose). Pre-fermentation cultures were grown until saturation and their cell densities determined by absorbance at 600 nm of an appropriate dilution made using fresh medium. Equalized quantities of biomass (e.g., ≧200 OD600 units) were harvested by centrifugation and re-suspended in ˜10 mL of fermentation medium to yield a cell density of OD600≧20. […]

[1] = system: S288C, PE-2, Ethanol Red, Kyokai 7; test: Glucose fermentation of laboratory and industrial yeast strains; assay type: cell-based, Saccharomyces cerevisiae; conditions: K—Pi supplementation, laboratory prototroph and auxotroph and industrial strains
Procedure: (§1) Pre-fermentation cultures were grown until saturation and their cell densities determined by absorbance at 600 nm of an appropriate dilution made using fresh medium. Equalized quantities of biomass (e.g., ≧200 OD600 units) were harvested by centrifugation and re-suspended in ˜10 mL of fermentation medium to yield a cell density of OD600≧20. In addition to the target high sugar concentration (e.g., 300 g/L glucose), the fermentation medium optionally contained the supplements under study (e.g., 50 mM K—Pi) and were the first time cells were exposed to modified ionic conditions.
(§2) Fermentations were conducted micro-aerobically: tube-based cultures had at least an equal volume of headspace and were capped snugly with snap-on plastic tops but not sealed with Parafilm. Samples were taken every ˜24 h over the course of 1-4 d; for simplicity, however, several figures display bar graphs of steady state or near steady state ethanol titers (e.g., FIGS. 5A-D). Typically, 16-20 μL were removed and diluted appropriately for measurement of cell density at OD600, another 20 μL for quantification of cell viability by methylene blue staining (see below), and a final 0.5 mL pelleted and the supernatant saved for determination of ethanol concentration.

[2] = system: laboratory strain (S288C); assay type: cell-based, Saccharomyces cerevisiae; conditions: for effect on ethanol output among additives screened: additives to 1×YSC, 300 g/L glucose (FIG. 7)
Procedure: (§3) To explore how ionic composition of the culture medium affects ethanol performance, chemically defined conditions were necessary which precluded, in some instances, the use of rich formulas such as yeast extract-peptone-dextrose (YEPD) medium or those containing corn steep liquor. […] After the addition of a carbon source and any ionic supplements, all medium were adjusted to pH 3.8 (i.e., the equilibrium pH from the addition of 50 mM K—Pi to 1×YSC), if necessary, using KOH, typically requiring <400 μM. Cultures were incubated at 30° C.: flask cultures (>25 mL) were agitated on a platform shaker at 200 RPM and smaller cultures in glass tubes on a roller drum at the maximum rotational setting.
as §1, §2
Ethanol concentrations were determined using one of the following two methods; for consistency, however, all samples deriving from a single experiment were assayed exclusively using one method. […] Absorbances of NADH at 340 nm were blanked against a reaction with ddH2O, measured using an Ultrospec 2100 pro UV/Visible spectrophotometer (GE Healthcare Life Sciences), and normalized against the absorbance of the control solution (“bottle 4”) to determine ethanol concentrations.
To determine final concentrations, peak areas auto-determined by the Agilent Chemstation for LC software were interpolated off a standard curve consisting of 0-20% ethanol (by volume) prepared in 1×YSC medium.
Images were recorded using a SPOT Insight 2 MP Firewire color camera with SPOT 5.0 software, and analyzed offline.
For each image, the number of unstained (clear) cells was quantified along with the total number (clear+stained) of cells, and the fraction of live cells determined by taking the quotient of the two. Fractions of viable cells were determined for 3-4 images per sample and used to calculate error statistics for the technical replicates (e.g., FIGS. 2A, 2B, 8A). Mean OD600 absorbance values were multiplied by their respective mean viable fractions to arrive at the underlying viable population in OD600 units (e.g., FIG. 1B, 3B).
To calculate ethanol productivities per viable cell, rates of increase in ethanol titer were normalized by the average viable OD600 during the corresponding period (FIG. 1A): […]

strain FY4/5 (S288C) = assay type: cell-based, Saccharomyces cerevisiae
S288C = conditions: YP diluted to 20%
Procedure: as §3

[3] = low viscosity CMC; cited from earlier work
[4] = cited from earlier work; for Specific activity: on PNPC

Molecule: O=Cc1ccc(CO)o1 [HMF, hydroxymethylfurfural]
- inhibition compared to the unsupplemented control (yeast; 120 mM): 10%

Molecule: CCO [ethanol]
- effect on intracellular pH (Strain BY4743; shocks of increasing ethanol concentration): decreased intracellular pH in a dose-dependent fashion

Molecule: O=P([O-])(O)O.[K+] [K—Pi, potassium phosphate monobasic]
- increase in ethanol productivity (H131-A3-AL^CS): ~70%
- increase in ethanol titer (H131-A3-AL^CS): ~70%
- counteraction of the ethanol-mediated pH drop (Strain BY4743): not capable of counteracting
- ethanol output titers (near the molar conversion limit) [1]: ~150 g/L
- rise in ethanol output ([2]; 50 mM K—Pi added to 1×YSC, 300 g/L glucose, initial OD600 20-30, vs unmodified medium): > 50%
- final ethanol titer ([2]; 50 mM K—Pi, 4-day culture, 300 g/L glucose): ~140 g/L
- effect on ethanol output among additives screened [2]: largest improvement
- specific ethanol productivity (rate normalized by mean live population) ([2]; elevated K—Pi vs unmodified medium): remained unchanged
- additional yeast biomass ([2]; high K—Pi vs unmodified medium): ~25%
- survival after ethanol shock (strain FY4/5 (S288C); 10-20% ethanol, 300 g/L glucose, 50 mM K—Pi vs unmodified medium): survival was indeed enhanced
- survival after isobutanol shock (strain FY4/5 (S288C); steps of isobutanol, 300 g/L glucose, elevated K—Pi): reduced rate of survival
- viability after isopropanol shock (strain FY4/5 (S288C); steps of isopropanol, 300 g/L glucose, K—Pi supplementation): viability was similarly enhanced

Molecule: OCc1ccco1 [furfuryl alcohol]
- tolerance by yeast compared to furfural (yeast): much better tolerated

Molecule: [K+] [K^+]
- resistance to isobutanol (strain FY4/5 (S288C); 5 g/L glucose, K+ supplementation combined with higher pH (5.3 vs. 3.9)): capable of enhancing resistance to isobutanol
- enhancement of ethanol output (S288C; addition of K+, pH 6, SD): 17±2.5%
- restoration of ethanol titers (S288C; pH 3.7, addition of K+): 47±2.5%
- ethanol titer (S288C; pH 3.7, addition of K+, SD): 109 ± 1.8 g/L

Molecule: O=P([O-])(O)O.[Na+] [Na—Pi, monosodium phosphate]
- effect on ethanol output among additives screened [2]: improves ethanol titer over NaCl

Molecule: [Cl-].[K+] [KCl, potassium chloride]
- counteraction of the ethanol-mediated pH drop (Strain BY4743): not capable of counteracting
- effect on ethanol output among additives screened [2]: largest enhancement within the panel of chloride salts tested
- effect on ethanol output and viability during fermentation ([2]; varied amount of KCl (10-75 mM) in synthetic medium): dose-dependent improvements
- viability after isobutanol shock (strain FY4/5 (S288C); 5 g/L glucose, additional KCl alone): insufficient to improve viability

B1: Cellulamonas fimi Eng (cenA): endoglucanase expressed in S. cerevisiae (protein, UniProt P07984 32-449, looked up)
Endoglucanase A: APGCRVDYAVTNQWPGGFGANVTITNLGDPVSSWKLDWTYTAGQRIQQLWNGTASTNGGQVSVTSLPWNGSIPTGGTASFGFNGSWAGSNPTPASFSLNGTTCTGTVPTTSPTPTPTPTTPTPTPTPTPTPTPTVTPQPTSGFYVDPTTQGYRAWQAASGTDKALLEKIALTPQAYWVGNWADASHAQAEVADYTGRAVAAGKTPMLVVYAIPGRDCGSHSGGGVSESEYARWVDTVAQGIKGNPIVILEPDALAQLGDCSGQGDRVGFLKYAAKSLTLKGARVYIDAGHAKWLSVDTPVNRLNQVGFEYAVGFALNTSNYQTTADSKAYGQQISQRLGGKKFVIDTSRNGNGSNGEWCNPRGRALGERPVAVNDGSGLDALLWVKLPGESDGACNGGPAAGQWWQEIALEMARNARW
- activity measured per L culture broth [3]: 293 U/L (low viscosity

B2: Cellulomonas fimi cex: CBHI group cellulase expressed in S. cerevisiae (protein, UniProt P07986 42-484, looked up)
Exoglucanase/xylanase: ATTLKEAADGAGRDFGFALDPNRLSEAQYKAIADSEFNLVVAENAMKWDATEPSQNSFSFGAGDRVASYAADTGKELYGHTLVWHSQLPDWAKNLNGSAFESAMVNHVTKVADHFEGKVASWDVVNEAFADGDGPPQDSAFQQKLGNGYIETAFRAARAADPTAKLCINDYNVEGINAKSNSLYDLVKDFKARGVPLDCVGFQSHLIVGQVPGDFRQNLQRFADLGVDVRITELDIRMRTPSDATKLATQAADYKKVVQACMQVTRCQGVTVWGITDKYSWVPDVFPGEGAALVWDASYAKKPAYAAVMEAFGASPTPTPTTPTPTPTTPTPTPTSGPAGCQVLWGVNQWNTGFTANVTVKNTSSAPVDGWTLTFSFPSGQQVTQAWSSTVTQSGSAVTVRNAPWNGSIPAGGTAQFGFNGSHTGTNAAPTAFSLNGTPCTVG
- activity measured per L culture broth ([4]; PNPC): 8 U/L,
- activity per dry cell weight ([4]; PNPC): ~1.0 U/g DCW (PNPC)
- Specific activity [4]: 3 U/mg

B3: Cellulomonas fimi Exg (cex): CBHI group cellulase expressed in S. cerevisiae (protein, UniProt P07986 42-484, looked up)
Exoglucanase/xylanase: B2 Exoglucanase/xylanase
- activity measured per L culture broth ([4]; PNPC): 45 U/L (PNPC)
- Specific activity [4]: 3.6 (PNPC) U/mg
